Assay: Dissolution times of calcium and magnesium in water at pH 7
Assay type: physicochemical
Conditions: water pH 7
Experimental: The dissolution times for calcium and magnesium were measured by dissolving each in a solution of water having a pH of 7. 331 mg of calcium was placed in a beaker containing the solution an allowed to dissolve. 165 mg of magnesium was then placed in a second beaker and dissolved. The results are listed below in Table 1 and shown graphically in FIG. 1.

| Dissolution, percent (%) (dissolution time 150 min) | Dissolution, percent (%) (dissolution time 180 min) | Dissolution, percent (%) (dissolution time 210 min) | Dissolution, percent (%) (dissolution time 240 min) | Dissolution, percent (%) (dissolution time 270 min) | Dissolution, percent (%) (dissolution time 300 min) | Dissolution, percent (%) (dissolution time 330 min) | Dissolution, percent (%) (dissolution time 360 min) | SMILES | Dissolution, percent (%) (dissolution time 0 min) | Dissolution, percent (%) (dissolution time 15 min) | Dissolution, percent (%) (dissolution time 30 min) | Dissolution, percent (%) (dissolution time 45 min) | Dissolution, percent (%) (dissolution time 60 min) | Dissolution, percent (%) (dissolution time 75 min) | Dissolution, percent (%) (dissolution time 90 min) | Dissolution, percent (%) (dissolution time 105 min) | Dissolution, percent (%) (dissolution time 120 min) |
| --- | --- | --- | --- | --- | --- | --- | --- | --- | --- | --- | --- | --- | --- | --- | --- | --- | --- |
| – | – | – | – | – | – | – | – | [Ca+2] [CALCIUM, calcium] | 0 | 99.7 | 98.79 | 98.19 | 99.09 | 96.79 | 97.89 | 100 | 99.09 |
| 26.61 | 31.82 | 36.67 | 41.82 | 46.79 | 50.67 | 55.21 | 58.91 | [Mg+2] [MAGNESIUM, magnesium] | 0 | – | 4.93 | – | 10.61 | – | 16.48 | – | 21.76 |

From patent US6887492B2, “Magnesium plus interactive agent delivery” (Leiner Health Services Corp., priority 2000, dated 2005)
